Results published in patent US6849757B2, “Antiangiogenic drug to treat cancer, arthritis and retinopathy” (Abbott Laboratories, priority 1998, dated 2005).

What follows are compounds tested on Human Microvascular Endothelial Cells (HMVEC) (assay: Endothelial cell migration assay (modified Boyden chamber, bFGF-stimulated)). Details: HMVEC migration toward bFGF, 4 hours at 37° C., percent inhibition of migration compared to a positive control.
Type: cell-based
Procedure: Endothelial Cell Migration Assay
The endothelial cell migration assay was performed essentially as described by Polverini, P. J. et al., Methods Enzymol, 198: 440-450 (1991). Briefly, Human Microvascular Endothelial Cells (HMVEC) were starved overnight in DMEM containing 0.1% bovine serum albumin (BSA). Cells were then harvested with trypsin and resuspended in DMEM with 0.1% BSA at a concentration of 1.5×10^6 cells/mL. Cells were added to the bottom of a 48-well modified Boyden chamber (Nucleopore Corporation, Cabin John, Md.). The chamber was assembled and inverted, and cells were allowed to attach for 2 hours at 37° C. to polycarbonate chemotaxis membranes (5 μm pore size) that had been soaked in 0.1% gelatin overnight and dried. The chamber was then reinverted and basic fibroblast growth factor (bFGF) and test substances were added to the wells of the upper chamber (to a total volume of 50 μL); the apparatus was then incubated for 4 hours at 37° C. Membranes were recovered, fixed and stained (DiffQuick, Fisher Scientific, Pittsburgh, Pa.) and the number of cells that had migrated to the upper chamber per 10 high power fields were counted. Background migration to DMEM+0.1% BSA was subtracted and the data reported as the number of cells migrated per 10 high power fields (400×) or when results from multiple experiments were combined, as the percent inhibition of migration compared to a positive control.

Compound | % inhibition at 200 nM test compound [%]
(S)-N-[4-[[2-(acetylamino)-6-amino-1-oxohexyl]amino]benzoyl]-L-α-asparagine [Example 18] | 90
COC(=O)c1ccc(NC(=O)[C@H](CCCCNC(=O)OCc2ccccc2)NC(C)=O)cc1-c1cccc(OCc2ccccc2)c1 [Example 12] | 29
CC(C)(C)OC(=O)N[C@@H](CCCCN)C(=O)Nc1ccc(C(=O)O)c(-c2cccc(O)c2)c1 [Example 31, 5-(((2S)-6-amino-1-(tert-butoxycarbonyl)aminohexanoyl)amino)-3′-hydroxy(1,1′-biphenyl)-2-carboxylic Acid] | >95
CC(=O)N[C@@H](CCCCN)C(=O)Nc1ccc(C(=O)O)c(-c2cccc(O)c2)c1 [Example 15, (S)-4-[[2-(acetylamino)-6-amino-1-oxohexyl)amino]-2-(3-hydroxphenyl)benzoic acid] | 64
CC(=O)NC(CCCCN)C(=O)Nc1ccc(C(=O)N[C@@H](CC(N)=O)C(=O)O)c(-c2ccccc2)c1 (stereo partly shown) [Example 17] | >95

Same assay, conditions: Homo sapiens; 200 nM test compound; HMVEC migration toward bFGF, 4 hours at 37° C.; percent inhibition of migration compared to a positive control

Compound | inhibition at 0.2 µM [%]
COC(=O)c1ccc(NC(=O)[C@@H](CCCCN)NC(=O)OC(C)(C)C)cc1-c1ccccc1O [Example 10, (R)-methyl 4-[[6-amino-2-[[(1,1-dimethylethoxy)carbonyl]amino]-1-oxohexyl]amino]-2-(2-hydroxyphenyl)benzoate] | 80
NC(CCCCNC(=O)OCc1ccccc1)C(=O)Nc1ccc(CC(=O)N[C@@H](CC(=O)O)C(=O)O)cc1 (stereo partly drawn) [Example 20, (S)-N-[[4-[[2-amino-6-[[(phenylmethoxy)carbonyl]amino]-1-oxohexyl]amino]phenyl]acetyl]-L-aspartic Acid] | 34
